From ChEMBL document CHEMBL4680205, “Multifunctional 6-fluoro-3-[3-(pyrrolidin-1-yl)propyl]-1,2-benzoxazoles targeting behavioral and psychological symptoms of dementia (BPSD)” (Eur J Med Chem, 2020)

How the values were obtained:
[1] = target: T1, 5-hydroxytryptamine receptor 7 (Homo sapiens, UniProt P34969); type: cell membranes, CHO-K1, Membrane
[2] = target: 5-hydroxytryptamine receptor 2A (Homo sapiens, UniProt P28223); type: cell membranes, CHO-K1, Membrane
[3] = target: T2, Alpha-2C adrenergic receptor (Homo sapiens, UniProt P18825); experiment: Antagonist activity at recombinant human adrenergic receptor alpha2c expressed in CHO-K1 cells assessed inhibition of epinephrine-induced cAMP accumulation measured after 10 mins by HTRF assay; type: cell-based; conditions: cho-k1, 10 min
T2 sequence (P18825 whole entry): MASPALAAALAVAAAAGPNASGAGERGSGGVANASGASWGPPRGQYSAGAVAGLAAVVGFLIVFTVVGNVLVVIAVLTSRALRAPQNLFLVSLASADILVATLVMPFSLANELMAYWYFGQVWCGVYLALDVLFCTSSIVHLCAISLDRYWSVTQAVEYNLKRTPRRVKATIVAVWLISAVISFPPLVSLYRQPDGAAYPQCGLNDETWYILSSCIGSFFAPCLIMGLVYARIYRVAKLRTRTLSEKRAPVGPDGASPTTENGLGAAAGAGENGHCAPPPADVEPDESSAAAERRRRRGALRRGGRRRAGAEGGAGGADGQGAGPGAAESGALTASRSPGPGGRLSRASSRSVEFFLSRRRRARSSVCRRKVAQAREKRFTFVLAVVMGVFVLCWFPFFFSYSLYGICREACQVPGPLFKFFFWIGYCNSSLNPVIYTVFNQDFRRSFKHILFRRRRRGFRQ

[4] = target: T3, 5-hydroxytryptamine receptor 2C (Homo sapiens, UniProt P28335); experiment: Antagonist activity at recombinant human 5HT2C receptor expressed in HEK293 cells assessed as inhibition of serotonin-induced inositol phosphate accumulation measured after 30 mins by HTRF assay; type: cell-based; conditions: hek293, 0.5 h
T3 sequence (P28335 whole entry): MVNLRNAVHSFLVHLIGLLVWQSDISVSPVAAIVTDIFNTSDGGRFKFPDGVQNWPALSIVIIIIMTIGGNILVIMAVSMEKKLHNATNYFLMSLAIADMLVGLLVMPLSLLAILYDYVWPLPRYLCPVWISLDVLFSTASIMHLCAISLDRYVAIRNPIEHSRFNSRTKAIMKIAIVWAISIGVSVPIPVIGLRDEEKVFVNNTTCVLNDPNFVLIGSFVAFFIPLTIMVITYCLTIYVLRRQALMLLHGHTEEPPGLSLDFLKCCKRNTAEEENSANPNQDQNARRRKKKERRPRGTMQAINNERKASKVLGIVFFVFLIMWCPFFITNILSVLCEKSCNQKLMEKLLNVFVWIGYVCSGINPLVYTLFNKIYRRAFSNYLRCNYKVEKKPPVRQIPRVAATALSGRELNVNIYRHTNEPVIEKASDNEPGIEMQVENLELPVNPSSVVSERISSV

[5] = target: D(2) dopamine receptor (Homo sapiens) (UniProt P14416); conditions: CHO-K1, filed as antagonist, time 15-31 min
Sequence of D(2) dopamine receptor (Homo sapiens) (P14416 whole entry): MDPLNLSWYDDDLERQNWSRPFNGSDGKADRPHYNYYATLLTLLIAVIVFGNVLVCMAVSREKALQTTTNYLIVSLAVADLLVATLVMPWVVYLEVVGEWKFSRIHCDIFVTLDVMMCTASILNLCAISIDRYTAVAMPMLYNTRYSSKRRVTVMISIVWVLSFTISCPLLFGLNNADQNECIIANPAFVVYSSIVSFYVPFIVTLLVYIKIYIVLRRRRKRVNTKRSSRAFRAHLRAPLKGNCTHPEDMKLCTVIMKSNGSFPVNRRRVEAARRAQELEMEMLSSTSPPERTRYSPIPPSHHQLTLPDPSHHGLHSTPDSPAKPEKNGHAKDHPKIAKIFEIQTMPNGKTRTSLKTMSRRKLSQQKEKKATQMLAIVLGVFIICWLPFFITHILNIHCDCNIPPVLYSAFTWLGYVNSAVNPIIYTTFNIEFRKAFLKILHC

[6] = Sedative activity in ip dosed Swiss albino mouse assessed as effect spontaneous locomotor activity measured during 2 to 6 mins of test; type: ADME, organism-based; conditions: in vivo, time 2-6 min
[7] = organism: Mus musculus; experiment: animal or person; conditions: CD-1, ip, 2 h, read-out: MED
[8] = Sedative activity in ip dosed CD-1 mouse assessed as effect spontaneous locomotor activity measured at 5 mins interval for 120 mins; type: ADME, organism-based; conditions: in vivo, 2 h
[9] = Psychoactive effect in ip dosed CD-1 mouse assessed as catalepsy effect measured after 30 to 120 mins by bar test; type: ADME, organism-based; conditions: in vivo, time 30-120 min
[10] = organism: Mus musculus; experiment: animal or person; conditions: CD-1, ip, 2 h, read-out: MED; remark: listed apart in the source
[11] = organism: Mus musculus; experiment: animal or person; conditions: Swiss, ip, 0.1 h, read-out: MED
[12] = mouse, in vivo, ip, 0.5 h
[13] = target: T1, 5-hydroxytryptamine receptor 7; conditions: CHO-K1, filed as antagonist, time 1.0 hrs

T1 sequence (P34969 whole entry): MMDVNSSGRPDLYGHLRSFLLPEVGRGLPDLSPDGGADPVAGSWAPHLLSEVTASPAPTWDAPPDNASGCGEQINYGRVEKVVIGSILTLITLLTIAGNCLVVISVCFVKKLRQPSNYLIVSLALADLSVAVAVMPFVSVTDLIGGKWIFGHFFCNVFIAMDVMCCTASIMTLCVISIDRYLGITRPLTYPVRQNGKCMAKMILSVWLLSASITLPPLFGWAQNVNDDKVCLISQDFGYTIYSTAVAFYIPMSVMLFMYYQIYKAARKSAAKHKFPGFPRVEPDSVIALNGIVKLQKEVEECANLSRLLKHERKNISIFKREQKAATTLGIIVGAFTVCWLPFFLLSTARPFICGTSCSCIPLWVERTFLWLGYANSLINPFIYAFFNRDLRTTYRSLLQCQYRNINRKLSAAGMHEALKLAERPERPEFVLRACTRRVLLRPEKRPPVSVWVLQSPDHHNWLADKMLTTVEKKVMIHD
Sequence of 5-hydroxytryptamine receptor 2A (P28223 whole entry): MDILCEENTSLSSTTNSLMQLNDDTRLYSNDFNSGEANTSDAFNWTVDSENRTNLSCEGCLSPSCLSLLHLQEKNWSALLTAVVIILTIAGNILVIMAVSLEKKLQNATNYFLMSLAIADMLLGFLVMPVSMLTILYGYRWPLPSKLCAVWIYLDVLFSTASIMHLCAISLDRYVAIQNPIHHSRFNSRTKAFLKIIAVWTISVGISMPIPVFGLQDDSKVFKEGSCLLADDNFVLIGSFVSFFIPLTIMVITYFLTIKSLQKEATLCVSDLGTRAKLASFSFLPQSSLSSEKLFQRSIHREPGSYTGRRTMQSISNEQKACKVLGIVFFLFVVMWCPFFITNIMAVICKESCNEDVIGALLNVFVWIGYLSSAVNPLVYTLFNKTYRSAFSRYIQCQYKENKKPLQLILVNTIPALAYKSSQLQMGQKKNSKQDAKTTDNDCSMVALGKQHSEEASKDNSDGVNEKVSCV

Compound O=S(=O)(N[C@@H]1CCN(CCCc2noc3cc(F)ccc23)C1)c1ccc(F)c(Cl)c1 has a Ki [1] of 1.45 nM and a Ki [2] of 5.25 nM.

COC(=O)[C@H]1[C@H]2C[C@H]3c4[nH]c5ccccc5c4CCN3C[C@H]2CC[C@@H]1O [RAUWOLSCINE] gave a pKb [3] of 8.62.

Cn1ccc2cc3c(cc21)CCN3C(=O)Nc1cccnc1 showed a pKb [4] of 8.39.

Compound CN(C)CCCN1c2ccccc2Sc2ccc(Cl)cc21 has a pKb [5] of 8.84.

Work on OCCOCCN1CCN(C2=Nc3ccccc3Sc3ccccc32)CC1 [QUETIAPINE] yielded an MED [6] of 10 mg/kg, a minimal effective dose [7] of 10 mg/kg and an MED [8] of 10 mg/kg. The MED [9] was 30 mg/kg, the minimal effective dose [10] was 5 mg/kg and the minimal effective dose [11] was 10 mg/kg.

For Cc1cccc(S(=O)(=O)N[C@@H]2CCN(CCCc3noc4cc(F)ccc34)C2)c1, the Ki [1] was 1.7 nM.

For Cc1cccc(S(=O)(=O)N[C@H]2CCN(CCCc3noc4cc(F)ccc34)C2)c1, the Ki [1] was 12.9 nM and the Ki [2] was 1.02 nM.

For O=C1CCc2ccc(OCCCCN3CCN(c4cccc(Cl)c4Cl)CC3)cc2N1 [ARIPIPRAZOLE], the MED [12] was > 2.5 mg/kg.

With CC1CCN(CC[C@H]2CCCN2S(=O)(=O)c2cccc(O)c2)CC1 the pKb [13] was 9.55.

In the case of O=S(=O)(N[C@H]1CCN(CCCc2noc3cc(F)ccc23)C1)c1ccc(F)c(Cl)c1, the Ki [1] is reported as 25.7 nM and the Ki [2] is reported as 6.46 nM.
